Earlier results, collected in publication PMC6007947, “Sensitivity of pretargeted immunoPET using ^68Ga-peptide to detect colonic carcinoma liver metastases in a murine xenograft model: Comparison with ^18FDG PET-CT” (Oncotarget, 2018).

Details: stated in discussion
Text: Pretargeting is one way to improve tumor uptake and tumor to normal organ uptake ratios by reducing the molecular size of the radioactive agent and using a non-radiolabeled bispecific antibody, such as TF2. TF2 is a humanized bispecific monoclonal antibody produced by the Dock-and-Lock® technology, containing two anti-CEA Fab fragments and another Fab fragment binding the HSG hapten component of the IMP288 hapten peptide. Compared to previously used bispecific antibodies with a single binding site for the tumor antigen and another for the hapten, this bivalency is expected to increase t ...

DOTA-D-Tyr-D-Lys(HSG)-D-Glu-D-Lys(HSG)-NH2 [IMP288, DOTA-conjugated tetrapeptide containing two HSG hapten structures]
Clearance from blood: within an hour
